Consider two molecules from patent US9523097B2, “Engineering rubber production in plants” (The United States of America, as represented by the …, priority 2013, dated 2016).

Each structure is given as a SMILES string. Read-outs that look alike come from different tables or passages of the source.

Assay [1] concerns guayule leaf explants. Briefly: Resistance of regenerated shoot on media with spectinomycin. Format: cell-based, Parthenium argentatum. The protocol:
To confirm whether the guayule explants were resistant to spectinomycin, leaf explants from control plants were cultured on regeneration DKW media that contained 0.75 mg·L^−1 BA and 0.125 mg·L^−1 NAA at various spectinomycin antibiotic levels. Several concentration of spectinomycin (0, 2, 4, 6, 8, 10, 12, 14, 16, 18 and 20 mg·L^−1) was added to the media to confirm the effects of antibiotic concentration on regeneration.

Assay [2] deals with guayule explants. The following applies: for Size of Callus with multi shoots: 5-point scale. The protocol:
To evaluate the effect of calcium nitrate on guayule regeneration, guayule explants were cultured on MS basal medium with plant growth regulators (PGRs) (1.0 mg·L^−1 BA and 0.1 mg·L^−1 NAA) and calcium nitrate. […] calcium nitrate concentrations, 0, 100, 250, 500, 750, 1000 and 1500 mg·L^−1, were tested (Table 3). Calcium nitrate was added to the culture medium before adjusting the pH to 5.7, prior to autoclaving. DKW basal medium (0.75 mg·L^−1 BA and 0.25 mg·L^−1 NAA) was used as a control.

In the case of `CN[C@@H]1[C@H](O)[C@H](NC)[C@H]2O[C@@]3(O)C(=O)C[C@@H](C)O[C@H]3O[C@@H]2[C@H]1O` [spectinomycin], in assay [1], the “concentration fatal to guayule plants” value was “about 12 mg/L”. The “Callus formation and shoot emergence” value is given as “not affected” in assay [1] (8 mg·L−1, DKW regeneration medium); “significantly reduced” in assay [1] (10 mg·L−1, DKW regeneration medium); “completely inhibited” in assay [1] (12 mg·L−1 or higher, DKW regeneration medium).

Take `O.O.O.O.O=[N+]([O-])[O-].O=[N+]([O-])[O-].[Ca+2]` [Calcium Nitrate, calcium nitrate tetrahydrate]: the “Size of Callus with multi shoots” value in assay [2] (100 mg·L−1, DKW with 0.75 mg·L−1 BA and 0.25 mg·L−1 NAA) is 3.0b; in assay [2] (100 mg·L−1, MS with 1.0 mg·L−1 BA and 0.1 mg·L−1 NAA), 4.5a; in assay [2] (250 mg·L−1, DKW with BA/NAA), 2.9b; in assay [2] (250 mg·L−1, MS with BA/NAA) it was 4.4a; in assay [2] (500 mg·L−1, DKW with BA/NAA), 2.2bc; in assay [2] (500 mg·L−1, MS with BA/NAA), 4.1ab. For the same molecule, the “Size of Callus with multi shoots” value in assay [2] (1000 mg·L−1, DKW with BA/NAA) came out at 2.0c; in assay [2] (1000 mg·L−1, MS with BA/NAA), 3.6c; in assay [2] (1500 mg·L−1, DKW with BA/NAA) it was 1.7 days; in assay [2] (1500 mg·L−1, MS with BA/NAA), 2.1 days. Moreover, the “Number of elongated shoots” value is given as 6/30 in assay [2] (100 mg·L−1, DKW with 0.75 mg·L−1 BA and 0.25 mg·L−1 NAA, per total explants); 3/30 in assay [2] (100 mg·L−1, MS with 1.0 mg·L−1 BA and 0.1 mg·L−1 NAA, per total explants); 3/30 in assay [2] (250 mg·L−1, DKW with BA/NAA, per total explants); 13/30 in assay [2] (250 mg·L−1, MS with BA/NAA, per total explants); 0/30 in assay [2] (500 mg·L−1, DKW with BA/NAA, per total explants); 6/30 in assay [2] (500 mg·L−1, MS with BA/NAA, per total explants). The “Number of elongated shoots” value in assay [2] (1000 mg·L−1, DKW with BA/NAA, per total explants) is reported as 0/30; in assay [2] (1000 mg·L−1, MS with BA/NAA, per total explants), 0/30; in assay [2] (1500 mg·L−1, DKW with BA/NAA, per total explants), 0/30; in assay [2] (1500 mg·L−1, MS with BA/NAA, per total explants), 0/30; in assay [2] (moderate concentrations (0, 100, 250, 500 and 1000 mg·L−1), MS and DKW medium), “significantly improved”. Moreover, the “effect on elongated shoots” value in assay [2] (higher concentrations) is “negative effect”.
